Consider 71 compounds from ChEMBL document CHEMBL4421722, “Inhibitors of protein prenyltransferases” (2013).

The species entered for this assay is Rattus norvegicus. Description: Inhibition of rat recombinant geranylgeranyltransferase type I expressed in Escherichia coli assessed as residual enzyme activity for geranylgeranylation of K-Ras4B at 50 uM incubated for 30 mins in presence of [3H]GGPP by scintillation counting assay relative to control.
`COc1ccc(S[C@@H]2C[C@@H](c3cc(OC)c(OC)c(OC)c3)N(S(=O)(=O)c3ccc(C)cc3)C[C@H]2C(=O)O)cc1`: the Activity turned out to be 110%.

On to `Cc1ccc(S(=O)(=O)N2[C@@H](c3cccc(Cl)c3)C(C(=O)O)=CC[C@H]2c2cccc(F)c2)cc1`, for which the Activity stood at 62.3%.

For the compound `CCOc1ccc([C@@H]2CC=C(C(=O)O)[C@H](c3ccc(Br)cc3)N2S(=O)(=O)c2ccc(C)cc2)cc1`, the Activity turned out to be 79.4%.

With `COc1ccc([C@@H]2C[C@@H](SCc3ccccc3)[C@H](C(=O)O)CN2S(=O)(=O)c2ccc(C)cc2)cc1`, the Activity came to 105%.

On to `Cc1ccc([C@@H]2C[C@@H](SCC(C)C)[C@H](C(=O)O)CN2S(=O)(=O)c2ccccc2)cc1`, for which the Activity was 51%.

As for `CCc1ccc([C@@H]2CC=C(C(=O)O)[C@H](c3ccc(Br)cc3)N2S(=O)(=O)c2ccc(C)cc2)cc1`, the Activity was 69.2%.

With `COc1cccc([C@@H]2CC=C(C(C)=O)CN2S(=O)(=O)c2ccc(C)cc2)c1`, the Activity was determined as 85%.

Consider `COc1ccc([C@@H]2C[C@@H](SCc3ccccc3)[C@H](C(=O)O)CN2S(=O)(=O)c2ccccc2C)cc1`, for which the Activity is 33.9%.

Regarding `Cc1ccc([C@H]2C(C(=O)O)=CC[C@@H](c3cccs3)N2S(=O)(=O)c2ccc(C)cc2)cc1`, the Activity turned out to be 73.4%.

As to `CC(=O)C1=CC[C@@H](c2cccc(C)c2)N(S(=O)(=O)c2ccc(C)cc2)C1`, the Activity turned out to be 102%.

In the case of `Cc1ccc([C@@H]2C[C@@H](SCc3ccc(C(C)(C)C)cc3)[C@H](C(=O)O)CN2S(=O)(=O)c2ccc(Cl)cc2)cc1`, the Activity turned out to be 62%.

On to `COc1ccc([C@@H]2CC=C(C(=O)O)[C@H](c3cccc(Br)c3)N2S(=O)(=O)c2ccc(C)cc2)cc1OC`, for which the Activity was determined as 59%.

Consider `Cc1ccc([C@@H]2C[C@@H](SCCC(C)C)[C@H](C(=O)O)CN2S(C)(=O)=O)cc1`, for which the Activity came to 93.4%.

For `C=CCS[C@@H]1C[C@@H](c2ccc(CC)cc2)N(S(=O)(=O)c2ccc(C)cc2)C[C@H]1C(=O)O`, the Activity was found to be 89.6%.

As to `Cc1ccc([C@@H]2C[C@@H](SCC(C)C)[C@H](C(=O)O)CN2S(=O)(=O)c2ccccc2C)cc1`, the Activity amounted to 78.3%.

Regarding `COc1ccc([C@@H]2CC=C(C(=O)O)[C@H](c3ccc(Br)cc3)N2S(=O)(=O)c2ccccc2C)cc1`, the Activity is 63.7%.

`Cc1ccc([C@@H]2C[C@@H](SCc3ccccc3)[C@H](C(=O)O)CN2S(=O)(=O)c2ccccc2)cc1`: the Activity stood at 47.4%.

`CCOc1ccc([C@@H]2CC=C(C(=O)O)[C@H](c3cccc(C)c3)N2S(=O)(=O)c2ccc(C)cc2)cc1`: the Activity was found to be 65.3%.

Take `CC(C)(C)c1ccc([C@H]2C(C(=O)O)=CC[C@@H](c3ccc(Cl)cc3)N2S(C)(=O)=O)cc1`: the Activity came out at 60.4%.

As for `Cc1ccc(S(=O)(=O)N2[C@@H](c3ccc(Cl)cc3)C(C(=O)O)=CC[C@H]2c2ccc(Cl)cc2)cc1`, the Activity turned out to be 52.8%.

Regarding `CCOc1ccc([C@@H]2CC=C(C(=O)O)[C@H](c3ccc(F)cc3)N2S(=O)(=O)c2ccc(C)cc2)cc1`, the Activity worked out at 66.2%.

Consider `Cc1ccc([C@@H]2CC=C(C(=O)O)[C@H](c3cccc(F)c3)N2S(=O)(=O)c2ccc(C)cc2)cc1`, for which the Activity is 77.3%.

In the case of `COc1ccc([C@@H]2CC=C(C(=O)O)[C@H](c3cccc(F)c3)N2S(=O)(=O)c2ccccc2C)cc1`, the Activity amounted to 86.6%.

Regarding `CCCCS[C@@H]1C[C@@H](c2ccc(OCC)cc2)N(S(=O)(=O)c2ccc(C)cc2)C[C@H]1C(=O)O`, the Activity amounted to 66%.

As for `CCCCCS[C@@H]1C[C@@H](c2cccc(Cl)c2)N(S(=O)(=O)c2ccc(C)cc2)C[C@H]1C(=O)O`, the Activity was 84.6%.

In the case of `Cc1ccc([C@H]2C(C(=O)O)=CC[C@@H](c3ccc(C)cc3)N2S(C)(=O)=O)cc1`, the Activity was 78%.

In the case of `Cc1ccc(S(=O)(=O)N2[C@@H](c3ccc(Br)cc3)C(C(=O)O)=CC[C@H]2c2ccc(Cl)cc2)cc1`, the Activity came out at 57.5%.

On to `CCCCCCS[C@@H]1C[C@@H](c2ccc3c(c2)OCO3)N(S(=O)(=O)c2ccc(C)cc2)C[C@H]1C(=O)O`, for which the Activity amounted to 62.7%.

In the case of `COc1ccc([C@@H]2CC=C(C(=O)O)[C@H](c3ccc(C)cc3)N2S(=O)(=O)c2ccc(C)cc2)cc1OC`, the Activity was found to be 89.3%.

As for `Cc1ccc(S(=O)(=O)N2[C@@H](c3ccc(C(C)(C)C)cc3)C(C(=O)O)=CC[C@H]2c2cccc(Cl)c2)cc1`, the Activity was found to be 78.8%.

In the case of `CCS[C@@H]1C[C@@H](c2ccc(C)cc2)N(S(=O)(=O)c2ccccc2C)C[C@H]1C(=O)O`, the Activity stood at 83.6%.

As for `Cc1ccc(S(=O)(=O)N2[C@@H](c3ccc(Cl)cc3)C(C(=O)O)=CC[C@H]2c2ccccc2)cc1`, the Activity amounted to 69.7%.

`Cc1ccc([C@@H]2C[C@@H](SCC(C)C)[C@H](C(=O)O)CN2S(=O)(=O)c2ccc(Cl)cc2)cc1`: the Activity came out at 66.3%.

Consider `Cc1ccc([C@@H]2CC=C(C(=O)O)[C@H](c3cccc(F)c3)N2S(C)(=O)=O)cc1`, for which the Activity turned out to be 75%.

With `CCCCCCS[C@@H]1C[C@@H](c2ccc(C)cc2)N(S(=O)(=O)c2ccccc2)C[C@H]1C(=O)O`, the Activity came out at 81.2%.

`Cc1ccc([C@H]2C(C(=O)O)=CC[C@@H](c3ccccc3)N2S(C)(=O)=O)cc1`: the Activity worked out at 90.4%.

In the case of `Cc1ccc(S(=O)(=O)N2[C@@H](c3cccc(Cl)c3)C(C(=O)O)=CC[C@H]2c2ccc(C(C)C)cc2)cc1`, the Activity amounted to 63.1%.

On to `Cc1ccccc1S(=O)(=O)N1C[C@@H](C(=O)O)[C@H](SCCC(C)C)C[C@H]1c1ccc(Cl)cc1`, for which the Activity came to 53.2%.

As to `C=CCS[C@@H]1C[C@@H](c2cccc(OC)c2)N(S(=O)(=O)c2ccc(C)cc2)C[C@H]1C(=O)O`, the Activity was 75.1%.

Turning to `CCCCS[C@@H]1C[C@@H](c2ccccc2F)N(S(=O)(=O)c2ccc(C)cc2)C[C@H]1C(=O)O`, the Activity was determined as 86.3%.

On to `Cc1ccc(S[C@@H]2C[C@@H](c3ccc(Cl)cc3)N(S(=O)(=O)c3ccccc3C)C[C@H]2C(=O)O)cc1`, for which the Activity was determined as 74.8%.

Take `Cc1ccc(S(=O)(=O)N2[C@@H](c3ccc(F)cc3)C(C(=O)O)=CC[C@H]2c2ccc3c(c2)OCO3)cc1`: the Activity was found to be 68.2%.

For `Cc1ccc(S(=O)(=O)N2C[C@@H](C(=O)O)[C@H](SCCC(C)C)C[C@H]2c2ccccc2F)cc1`, the Activity was determined as 58.4%.

`Cc1ccc(S(=O)(=O)N2C[C@@H](C(=O)O)[C@H](SCc3ccccc3)C[C@H]2c2ccccc2)cc1`: the Activity came to 92.1%.

On to `COc1ccc([C@@H]2CC=C(C(=O)O)[C@H](c3cccc(C)c3)N2S(=O)(=O)c2ccc(C)cc2)cc1OC`, for which the Activity was determined as 76%.

With `COc1ccc([C@@H]2CC=C(C(=O)O)[C@H](c3ccc(F)cc3)N2S(=O)(=O)c2ccccc2C)cc1`, the Activity was 66.1%.

With `CCCCCS[C@@H]1C[C@@H](c2ccc(C)cc2)N(S(=O)(=O)c2ccccc2C)C[C@H]1C(=O)O`, the Activity amounted to 62.9%.

For `COc1ccc([C@@H]2CC=C(C(=O)O)[C@H](c3cccc(Cl)c3)N2S(=O)(=O)c2ccccc2C)cc1`, the Activity was found to be 66.1%.

For `COc1ccc([C@@H]2CC=C(C(=O)O)[C@H](c3ccc(Cl)cc3)N2S(=O)(=O)c2ccccc2)cc1`, the Activity was 86.8%.

Turning to `Cc1ccc(S(=O)(=O)N2C[C@@H](C(=O)O)[C@H](SCCC(C)C)C[C@H]2c2ccccc2)cc1`, the Activity is 90%.

With `Cc1ccc(S(=O)(=O)N2[C@@H](c3cccc(Br)c3)C(C(=O)O)=CC[C@H]2c2ccccc2)cc1`, the Activity was 65.9%.

For the compound `Cc1ccc(S(=O)(=O)N2C[C@@H](C(=O)O)[C@H](SCCC(C)C)C[C@H]2c2ccc3c(c2)OCO3)cc1`, the Activity was determined as 77.4%.

Regarding `COc1ccc([C@@H]2C[C@@H](SCCc3ccccc3)[C@H](C(=O)O)CN2S(=O)(=O)c2ccc(Cl)cc2)cc1`, the Activity was determined as 75.3%.

With `Cc1ccc(S(=O)(=O)N2[C@@H](c3cccc(C)c3)C(C(=O)O)=CC[C@H]2c2ccc(F)cc2)cc1`, the Activity is 78.1%.

In the case of `Cc1ccc(S(=O)(=O)N2[C@@H](c3ccc(C(C)(C)C)cc3)C(C(=O)O)=CC[C@H]2c2cccc(F)c2)cc1`, the Activity worked out at 77.2%.

Regarding `COC(=O)c1ccccc1S(=O)(=O)N1[C@@H](c2ccc(C(C)(C)C)cc2)C(C(=O)O)=CC[C@H]1c1ccc(C)cc1`, the Activity was 111%.

For `Cc1ccc([C@@H]2CC=C(C(=O)O)[C@H](c3ccc(Br)cc3)N2S(C)(=O)=O)cc1`, the Activity turned out to be 84.5%.

As for `C=CCS[C@@H]1C[C@@H](c2ccc(C)cc2)N(S(C)(=O)=O)C[C@H]1C(=O)O`, the Activity is 91.4%.

For the compound `Cc1ccc(S(=O)(=O)N2[C@@H](c3cccc(F)c3)C(C(=O)O)=CC[C@H]2c2cccc(F)c2)cc1`, the Activity was 69.9%.

`Cc1ccc(S(=O)(=O)N2[C@@H](c3ccc(Cl)cc3)C(C(=O)O)=CC[C@H]2c2cccs2)cc1`: the Activity was determined as 75.6%.

For the compound `CCCS[C@@H]1C[C@@H](c2ccc(C)cc2)N(S(=O)(=O)c2ccc(Cl)cc2)C[C@H]1C(=O)O`, the Activity came out at 83.2%.

Turning to `CCCCCCS[C@@H]1C[C@@H](c2ccc(C)cc2)N(S(C)(=O)=O)C[C@H]1C(=O)O`, the Activity is 83.1%.

As for `Cc1ccc([C@@H]2CC=C(C(=O)O)[C@H](c3cccc(C)c3)N2S(C)(=O)=O)cc1`, the Activity is 56%.

As for `Cc1ccccc1S(=O)(=O)N1[C@@H](c2ccc(Cl)cc2)C(C(=O)O)=CC[C@H]1c1ccc(Cl)cc1`, the Activity was 54.4%.

Turning to `Cc1ccc(S(=O)(=O)N2[C@@H](c3ccc(C(C)(C)C)cc3)C(C(=O)O)=CC[C@H]2c2cccc(C)c2)cc1`, the Activity turned out to be 56.1%.

`C=CCS[C@@H]1C[C@@H](c2ccc(C)cc2)N(S(=O)(=O)c2ccccc2)C[C@H]1C(=O)O`: the Activity turned out to be 50.7%.

With `CCOc1ccc([C@@H]2CC=C(C(=O)O)[C@H](c3cccc(Cl)c3)N2S(=O)(=O)c2ccc(C)cc2)cc1`, the Activity came out at 78.9%.

`CCOc1ccc([C@@H]2CC=C(C(=O)O)[C@H](c3ccc(Cl)cc3)N2S(=O)(=O)c2ccc(C)cc2)cc1`: the Activity worked out at 71.6%.

Take `COc1ccc([C@@H]2CC=C(C(=O)O)[C@H](c3cccc(Br)c3)N2S(=O)(=O)c2ccc(Cl)cc2)cc1`: the Activity turned out to be 60.7%.

For the compound `COc1cccc([C@@H]2C[C@@H](Sc3ccc(C)cc3)[C@H](C(=O)O)CN2S(=O)(=O)c2ccc(C)cc2)c1`, the Activity was 77%.

As to `Cc1ccc([C@@H]2CC=C(C(=O)O)[C@H](c3ccc(Cl)cc3)N2S(=O)(=O)c2ccc(C)cc2)cc1`, the Activity amounted to 67.4%.
